Source: ChEMBL document CHEMBL5705884, “Breaching the DNA damage checkpoint via PF-00477736, a novel small-molecule inhibitor of checkpoint kinase 1” (Mol Cancer Ther, 2008)
pEC50, pIC50: −log10 of the molar value. Calls of active or inactive are those of the source. The calls are words filed in the database; no cut-off is given here.

What was measured:
K562 [1] = experiment: Potentiation factor, ratio of IC50 for human K562 cells to IC50 for human K562 cells in presence of SN-38; type: functional
COLO 205 [2] = experiment: Antitumor activity against human COLO 205 cells xenografted in athymic nude mouse model assessed as tumor growth delay by measuring test to control tumor ratio at 40 mg/kg, ip administered twice daily in presence of gemcitabine (Gemcitabine alone= 8%); type: functional
COLO 205 [3] = experiment: Potentiation factor, ratio of IC50 for human COLO 205 cells to IC50 for human COLO 205 cells in presence of doxorubicin; type: functional
K562 [4] = experiment: Potentiation factor, ratio of IC50 for human K562 cells to IC50 for human K562 cells in presence of doxorubicin; type: functional
[5] = AUC (0 to infinity) in nu/nu mouse at 40 mg/kg, ip by LCMS analysis; type: ADME, organism-based; conditions: in vivo
COLO 205 [6] = experiment: Antitumor activity against human COLO 205 cells xenografted in athymic nude mouse model assessed as potentiated tumor growth inhibition at 4 mg/kg, ip administered twice daily in presence of gemcitabine relative to control; type: functional; conditions: read-out: TGI
COLO 205 [7] = experiment: Antitumor activity against human COLO 205 cells xenografted in athymic nude mouse model assessed as gross log cell kill at 15 mg/kg, ip administered twice daily in presence of gemcitabine (Gemcitabine alone = 0.27%); type: functional
[8] = Cmax in nu/nu mouse at 20 mg/kg, ip by LCMS analysis; type: ADME, organism-based; conditions: in vivo
COLO 205 [9] = experiment: Antitumor activity against human COLO 205 cells xenografted in athymic nude mouse model assessed as potentiated tumor growth inhibition at 40 mg/kg, ip administered twice daily in presence of gemcitabine relative to control; type: functional; conditions: read-out: TGI
COLO 205 [10] = experiment: In vivo inhibition of Chk1 in athymic nude mouse xenografted with gemcitabine treated human COLO 205 cells assessed as increase in caspase-3 level by immunohistochemical analysis; type: functional, cell-based; conditions: dose 15-30 mg/kg
MDA-MB-231 = experiment: Potentiation factor, ratio of IC50 for human MDA-MB-231 cells to IC50 for human MDA-MB-231 cells in presence of gemcitabine; type: functional
COLO 205 [11] = experiment: In vivo inhibition of Chk1 in athymic nude mouse xenografted with gemcitabine treated human COLO 205 cells assessed as increase in histone H3 phosphorylation level at Ser10 residues at 7.5 to 15 mg/kg by immunohistochemical analysis; type: functional, organism-based; conditions: dose 7.5-15 mg/kg
COLO 205 [12] = experiment: Antitumor activity against human COLO 205 cells xenografted in athymic nude mouse model assessed as tumor growth inhibition at 30 mg/kg, ip administered once daily in presence of gemcitabine (Gemcitabine alone = 40%); type: functional; conditions: read-out: TGI
COLO 205 [13] = experiment: Antitumor activity against human COLO 205 cells xenografted in athymic nude mouse model assessed as tumor growth delay by measuring test to control tumor ratio at 15 mg/kg, ip administered once daily in presence of gemcitabine (Gemcitabine alone = 3%); type: functional
COLO 205 [14] = experiment: Antitumor activity against human COLO 205 cells xenografted in athymic nude mouse model assessed as tumor growth delay by measuring test to control tumor ratio at 4 mg/kg, ip administered once daily in presence of gemcitabine (Gemcitabine alone = 8 %); type: functional
COLO 205 [15] = experiment: Antitumor activity against human COLO 205 cells xenografted in athymic nude mouse model assessed as gross log cell kill at 7.5 mg/kg, ip administered once daily in presence of gemcitabine (Gemcitabine alone = 0.27%); type: functional
HT-29 [16] = experiment: Antiproliferative activity against human HT-29 cells deficit of p53 expression assessed as inhibition of cell growth measured after 96 hrs by MTT assay; type: functional, cell-based; conditions: HT-29, 96 h
PC-3 [17] = experiment: Potentiation factor, ratio of IC50 for human PC-3 cells to IC50 for human PC-3 cells in presence of SN-38; type: functional
HT-29 [18] = experiment: Cytotoxicity in human HT-29 cells assessed as cell survival at 540 nM measured after 4 to 48 hrs by coulter counter method relative to control; type: functional; conditions: time 4-48 hrs, read-out: Activity
COLO 205 [19] = experiment: Antitumor activity against human COLO 205 cells xenografted in athymic nude mouse model assessed as tumor growth inhibition at 40 mg/kg, ip administered twice daily in presence of gemcitabine (Gemcitabine alone= 58%); type: functional; conditions: read-out: TGI
PC-3 [20] = experiment: Potentiation factor, ratio of IC50 for human PC-3 cells to IC50 for human PC-3 cells in presence of gemcitabine; type: functional
COLO 205 [21] = experiment: Potentiation factor, ratio of IC50 for human COLO 205 cells to IC50 for human COLO 205 cells in presence of carboplatin; type: functional
HT-29 [22] = experiment: Potentiation factor, ratio of IC50 for human HT-29 cells to IC50 for human HT-29 cells in presence of gemcitabine; type: functional
HT-29 [23] = experiment: Induction of apoptosis in gemcitabine induced human HT-29 cells assessed as apoptotic cell death measured after 48 hrs by PI staining based flow cytometry analysis (reference value: 8.6%); type: functional
HeLa = experiment: Inhibition of camptothecin induced DNA damage in human HeLa cells assessed as increase in mitotic index by measuring histone H3 phosphorylation at S10 residue at 0.001 to 1 uM measured after 16 hrs presence of nocodazole by dot blot assay; type: functional, cell-based
CA46 = experiment: Inhibition of camptothecin induced DNA damage in p-53 mutated human CA46 cells assessed as G2 checkpoint abrogation at 0.001 to 1 uM measured after 16 hrs presence of nocodazole by dot blot assay; type: functional, cell-based; conditions: dose 0.001-1 µM

Molecule Cn1cc(-c2[nH]c3cc(NC(=O)[C@H](N)C4CCCCC4)cc4c3c2C=NNC4=O)cn1 has a PF50 (K562 [1]) of 1.9, a T/C (COLO 205 [2]) of 20 and a PF50 (COLO 205 [3]) of 1.1. It also gave a PF50 (K562 [4]) of 1.1, an AUC(0-inf) [5] of 25800 ng·h/mL and an inhibition in vivo at 4 mg/kg (COLO 205 [6]) of 12%. It also gave an LCK (COLO 205 [7]) of 1.03, a Cmax [8] of 1290 ng/mL and an inhibition in vivo at 40 mg/kg (COLO 205 [9]) of 75%. For the same molecule, the inhibition (COLO 205 [10]) was “Dose-Dependent Effect”, the PF50 (MDA-MB-231) was 3.6 and the inhibition (COLO 205 [11]) was “Active”. For the same molecule, the inhibition in vivo at 30 mg/kg (COLO 205 [12]) was 64%, the T/C (COLO 205 [13]) was 7.75 and the T/C (COLO 205 [14]) was 8. The LCK (COLO 205 [15]) was 0.52, the pIC50 (HT-29 [16]) was 5.74 and the PF50 (PC-3 [17]) was 1.3. It also gave a viability at 0.54 µM (HT-29 [18]) of 83%, an inhibition in vivo at 40 mg/kg (COLO 205 [19]) of 90% and a PF50 (PC-3 [20]) of 12.2. For the same molecule, the PF50 (COLO 205 [21]) was 5.4, the PF50 (HT-29 [22]) was 9 and the Activity (HT-29 [23]) was 78.6%. The pEC50 (HeLa) was 7.42 and the inhibition (CA46) was “Active”.
